Assays:
[1] = tested on: LPS-induced TNFα in monocytes; assay: Monocytes assay: LPS-triggered TNFα (ELISA); assay type: cell-based, human; conditions: Homo sapiens, Monocyte, LPS 200 ng/mL, supernatant after 4 h
Outline: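 Human CD14+ monocytes from buffy-coat PBMCs (magnetic bead selection) were seeded at 100 000 cells/well and pretreated with compound for 1 h at 37° C (0.2% DMSO). They were then stimulated with 200 ng/mL LPS for 4 h, and supernatant TNFα was measured by chemiluminescent sandwich ELISA as percent inhibition.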

[2] = tested on: LPS triggered IL-10 secretion in monocytes; assay: Monocytes assay: LPS-triggered IL-10 (ELISA); assay type: cell-based, human; conditions: LPS 200 ng/mL, supernatant after 4 h, maximal fold change vs LPS only
Outline: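 Human CD14+ monocytes, magnetically isolated from buffy-coat PBMCs, were seeded at 100 000 cells/well and preincubated with compound for 1 h at 37° C (0.2% DMSO). LPS was then added at a final 200 ng/mL for 4 h. Supernatant IL-10 was quantified by chemiluminescent sandwich ELISA against a standard curve.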

TNFα = assay: Mouse LPS-induced endotoxic shock, plasma TNFα; assay type: in vivo; set-up: key: +: statistically significant inhibition of TNFα; −: no effect on the level of TNFα; conditions: p.o., plasma 90 min after LPS challenge
Procedure: (§1) Injection of lipopolysaccharide (LPS) induces a rapid release of soluble tumour necrosis factor (TNFα) into the periphery. This model was used to assess prospective blockers of TNFα release in vivo.
(§2) Lipopolysaccharide (LPS) from Escherichia Coli serotype O111:B4 was obtained from Sigma Aldrich (Cat #L2630).
(§3) BALB/cAnNCrl mice (female, 18-20 g body weight) were obtained from Charles River (Calco, Italy). Mice were kept on a 12 h light/dark cycle. Temperature was maintained at 22±2° C., food and water were provided ad libitum.
(§4) Mice were dosed once by oral (p.o.) or subcutaneous (sc) route with the tested compound in the appropriate vehicle.
(§5) At the Tmax of compound, 100 μg of LPS (in H2O) was injected intraperitoneally to mice. A control group was included which comprises administering the vehicle without an LPS challenge.
(§6) Mice were sacrificed 90 min after LPS challenge and blood was collected in heparinised tubes. Plasma was obtained by centrifugation for 15 min, 2000×g at +4° C. and frozen at −80° C. before cytokine analysis.
(§7) TNFα and IL-10 were quantified in plasma by AlphaLISA detection kits obtained from PerkinElmer (Massachusetts, USA), Cat4 AL505C and AL502C, respectively.
(§8) Statistics were performed with Prism 5.03 software (GraphPad) using an ANOVA analysis of variance with Dunnett's post-hoc test versus LPS group.
(§9) Active compounds were defined as showing a statistically significant decrease in TNFα with or without a statistically significant induction of IL-10

IL-10 = assay: Mouse LPS-induced endotoxic shock, plasma IL-10; assay type: in vivo; set-up: key: +: statistically significant induction of IL-10; −: no effect on the level of IL-10; conditions: p.o., plasma 90 min after LPS challenge
Procedure: as §1, §2, §3, §4, §5, §6, §7, §8, §9

SMILES	EC50 ([1]; 4 h)	IL-10 FCmax median [2]	further results
COc1cc(-c2cnc3cc(OCCN(C)C)ccn23)cc(OC(F)F)c1C(=O)NC1CC1 [Cpd 6, N-cyclopropyl-2-(difluoromethoxy)-4-[7-[2-(dimethylamino)ethoxy]imidazo[1,2-a]pyridin-3-yl]-6-methoxy-benzamide]	100 to 1000 nM	+++ (>4.5)	TNFα (TNFα; 3 mg/kg): −; TNFα (TNFα; 10 mg/kg): +; IL-10 (IL-10; 3 mg/kg): −; IL-10 (IL-10; 10 mg/kg): +
COc1cc(-c2cnc3cc(OCCN(C)C)ccn23)cc2c1C(=O)N(CC(F)(F)F)CC2 [Cpd 18, 6-[7-[2-(dimethylamino)ethoxy]imidazo[1,2-a]pyridin-3-yl]-8-methoxy-2-(2,2,2-trifluoroethyl)-3,4-dihydroisoquinolin-1-one]			TNFα (TNFα; 3 mg/kg): −; TNFα (TNFα; 10 mg/kg): −; IL-10 (IL-10; 3 mg/kg): −; IL-10 (IL-10; 10 mg/kg): −
COc1cc(-c2cnc3cc(OC[C@H]4COCCO4)ccn23)cc2c1C(=O)N(CC(F)(F)F)CC2 [Cpd 86, 6-[7-[[(2R)-1,4-dioxan-2-yl]methoxy]imidazo[1,2-a]pyridin-3-yl]-8-methoxy-2-(2,2,2-trifluoroethyl)-3,4-dihydroisoquinolin-1-one]	100 to 1000 nM	+++ (>4.5)	TNFα (TNFα; 3 mg/kg): +; TNFα (TNFα; 10 mg/kg): +; IL-10 (IL-10; 3 mg/kg): +; IL-10 (IL-10; 10 mg/kg): +
COc1cc(-c2cnc3cc(OCCN4CCOCC4)ccn23)cc2c1C(=O)N(CC(F)(F)F)CC2 [Cpd 88, 8-methoxy-6-[7-(2-morpholinoethoxy)imidazo [1,2-a]pyridin-3-yl]-2-(2,2,2-trifluoroethyl)-3,4-dihydroisoquinolin-1-one]		+++ (>4.5)	EC50 [1]: 100 to 1000 nM; TNFα (TNFα; 3 mg/kg): +; TNFα (TNFα; 10 mg/kg): +; TNFα (TNFα; 30 mg/kg): +; IL-10 (IL-10; 3 mg/kg): −; IL-10 (IL-10; 10 mg/kg): +; IL-10 (IL-10; 30 mg/kg): +
COc1cc(-c2cnc3cc(OC[C@@H]4COCCO4)ccn23)cc2c1C(=O)N(CC(F)(F)F)CC2 [compound 225, 6-[7-[[(2S)-1,4-dioxan-2-yl]methoxy]imidazo[1,2-a]pyridin-3-yl]-8-methoxy-2-(2,2,2-trifluoroethyl)-3,4-dihydroisoquinolin-1-one]	100 to 1000 nM	+++ (>4.5)	TNFα (TNFα; 3 mg/kg): +; TNFα (TNFα; 10 mg/kg): +; IL-10 (IL-10; 3 mg/kg): +; IL-10 (IL-10; 10 mg/kg): +
COc1cc(-c2cnc3cc(OCC4(F)CN(C(=O)OC(C)(C)C)C4)ccn23)cc2c1C(=O)N(CC(F)(F)F)CC2 [compound 248, tert-butyl 3-fluoro-3-[[3-[8-methoxy-1-oxo-2-(2,2,2-trifluoroethyl)-3,4-dihydroisoquinolin-6-yl]imidazo[1,2-a]pyridin-7-yl]oxymethyl]azetidine-1-carboxylate]	100 to 1000 nM	+++ (>4.5)	
COc1cc(-c2cnc3cc(OCC4(F)CN(C)C4)ccn23)cc2c1C(=O)N(CC(F)(F)F)CC2 [compound 252, 6-[7-[(3-fluoro-1-methyl-azetidin-3-yl)methoxy]imidazo[1,2-a]pyridin-3-yl]-8-methoxy-2-(2,2,2-trifluoroethyl)-3,4-dihydro isoquinolin-1-one]	100 to 1000 nM	+++ (>4.5)	
COc1cc(-c2cnc3cc(OCCN4CCOC[C@H]4C)ccn23)cc2c1C(=O)N(CC(F)(F)F)CC2 [compound 259, 8-methoxy-6-[7-[2-[(3R)-3-methylmorpholin-4-yl]ethoxy]imidazo[1,2-a]pyridin-3-yl]-2-(2,2,2-trifluoroethyl)-3,4-dihydroisoquinolin-1-one]	100 to 1000 nM	+++ (>4.5)	
COc1cc(-c2cnc3cc(OCCCN4CC5(COC5)C4)ccn23)cc(OC(F)F)c1C(=O)NC1CC1 [compound 273, N-cyclopropyl-2-(difluoromethoxy)-6-methoxy-4-[7-[3-(2-oxa-6-azaspiro[3.3]heptan-6-yl)propoxy]imidazo[1,2-a]pyridin-3-yl]benzamide]	100 to 1000 nM	++ (>1.5-4.5)	
COc1cc(-c2cnc3cc(OCCCN4CCC4)ccn23)cc(OC(F)F)c1C(=O)NC1CC1 [compound 274, 4-[7-[3-(azetidin-1-yl)propoxy]imidazo[1,2-a]pyridin-3-yl]-N-cyclopropyl-2-(difluoromethoxy)-6-methoxy-benzamide]	100 to 1000 nM	++ (>1.5-4.5)	
COc1cc(-c2cnc3cc(OCCCN4CCCC4)ccn23)cc(OC(F)F)c1C(=O)NC1CC1 [compound 275, N-cyclopropyl-2-(difluoromethoxy)-6-methoxy-4-[7-(3-pyrrolidin-1-ylpropoxy)imidazo[1,2-a]pyridin-3-yl]benzamide]	100 to 1000 nM	+++ (>4.5)	
COc1cc(-c2cnc3cc(OCCN4CCN(C(C)C)CC4)ccn23)cc(OC(F)F)c1C(=O)NC1CC1 [compound 276, N-cyclopropyl-2-(difluoromethoxy)-4-[7-[2-(4-isopropylpiperazin-1-yl)ethoxy]imidazo[1,2-a]pyridin-3-yl]-6-methoxy-benzamide]	100 to 1000 nM	++ (>1.5-4.5)	
COc1cc(-c2cnc3cc(OCCCN4CCNCC4)ccn23)cc(OC(F)F)c1C(=O)NC1CC1 [compound 278, N-cyclopropyl-2-(difluoromethoxy)-6-methoxy-4-[7-(3-piperazin-1-ylpropoxy)imidazo[1,2-a]pyridin-3-yl]benzamide]	100 to 1000 nM	++ (>1.5-4.5)	
COc1cc(-c2cnc3cc(OCCOCCN4CCCCC4)ccn23)cc(OC(F)F)c1C(=O)NC1CC1 [compound 305]	0.1 to 100 nM	+++ (>4.5)	
COc1cc(-c2cnc3cc(OCCCN4CCC5(CC4)CN(C)C(=O)O5)ccn23)cc(OC(F)F)c1C(=O)NC1CC1 [compound 325, N-cyclopropyl-2-(difluoromethoxy)-6-methoxy-4-[7-[3-(3-methyl-2-oxo-1-oxa-3,8-diazaspiro[4.5]decan-8-yl)propoxy]imidazo[1,2-a]pyridin-3-yl]benzamide]	0.1 to 100 nM	++ (>1.5-4.5)	
COc1cc(-c2cnc3cc(OCCCN4CCCC(O)C4)ccn23)cc(OC(F)F)c1C(=O)NC1CC1 (centres unmarked) [compound 328, N-cyclopropyl-2-(difluoromethoxy)-4-[7-[3-(3-hydroxy-1-piperidyl)propoxy]imidazo [1,2-a]pyridin-3-yl]-6-methoxy-benzamide]	100 to 1000 nM	+++ (>4.5)	
CCOC(=O)C1(F)CCN(CC(O)COc2ccn3c(-c4cc(OC)c(C(=O)NC5CC5)c(OC(F)F)c4)cnc3c2)CC1 (centres unmarked) [compound 384, ethyl 1-[3-[3-[4-(cyclopropylcarbamoyl)-3-(difluoromethoxy)-5-methoxy-phenyl]imidazo[1,2-a]pyridin-7-yl]oxy-2-hydroxy-propyl]-4-fluoro-piperidine-4-carboxylate]	0.1 to 100 nM	++ (>1.5-4.5)	
CCOC(=O)C1(F)CCN(CCOc2ccn3c(-c4cc(OC)c(C(=O)NC5CC5)c(OC(F)F)c4)cnc3c2)CC1 [compound 390, ethyl 1-[2-[3-[4-(cyclopropylcarbamoyl)-3-(difluoromethoxy)-5-methoxy-phenyl]imidazo[1,2-a]pyridin-7-yl]oxyethyl]-4-fluoro-piperidine-4-carboxylate]	0.1 to 100 nM	+++ (>4.5)	

Reference: patent US12264156B2, “Compounds and pharmaceutical compositions thereof for the treatment of diseases” (GALAPAGOS NV, priority 2018, dated 2025)
